Laboratory results from patent US10980851B2, “Topical skincare compositions comprising Centella asiatica selected triterpenes” (The Procter & Gamble Company, priority 2018, dated 2021).

Tested on: gene expression in tert keratinocytes
Experiment: Signature free connectivity mapping (C-map) similarity to CAST
Details: Concentration Tested 0.01% (wt. %); Fisher Discriminant Analysis
Description: Signature Free Method of Querying Perturbagens Using Connectivity Mapping to Test Similarity Among Different Varieties of Perturbagens
The signature-free query method describes methodologies for identifying gene expression similarities among different perturbagens, such as cosmetic actives and/or natural extracts in an already existing tert connectivity map database. “Connectivity map” and “C-map” refer broadly to devices, systems, articles of manufacture, and methodologies for identifying relationships between cellular phenotypes or cosmetic conditions, gene expression, and perturbagens, such as cosmetic actives. […]
The tert C-map database consists of normalized gene expression data of approximately 3200 perturbagens. […] For each individual perturbagen, the output of the normalization includes an expression value for each probe analyzed in the gene expression profiling experiment. […]
The data matrix is analyzed using multivariate statistical analysis. Though described herein with reference to regularized Fisher Discriminant Analysis using a kernel version of the projection matrix, those of ordinary skill in the art will readily appreciate that other forms of multivariate statistical analysis may be employed in other embodiments. […]

Molecule | Similarity (distance) Score from CAST
Madecassoside | −0.031
C[C@H]1[C@H](C)CC[C@]2(C(=O)O)CC[C@]3(C)C(=CC[C@@H]4[C@@]5(C)C[C@@H](O)[C@H](O)[C@@](C)(CO)[C@@H]5[C@H](O)C[C@]43C)[C@H]12 [Madecassic acid] | 0.770
